From ChEMBL document CHEMBL4130478, “Improved proteolytic stability and potent activity against Leishmania infantum trypanothione reductase of α/β-peptide foldamers conjugated to cell-penetrating peptides” (Eur J Med Chem, 2017)
The source made the active and inactive calls. The rule behind the calls is not given here.

Assays:
Trypanothione reductase [1] = biological target: T1, Trypanothione reductase (Leishmania infantum, UniProt A4HSF7); assay: Inhibition of oxidoreductase activity of recombinant Leishmania infantum trypanothione reductase pre-incubated for 10 mins before T[S]2 and NADPH addition
Trypanothione reductase [2] = biological target: T1, Trypanothione reductase; assay: Inhibition of dimerization of HIS/FLAG tagged Leishmania infantum trypanothione reductase incubated for 16 hrs in presence of dimerization buffer by ELISA
Leishmania infantum [3] = assay: Leishmanicidal activity against Leishmania infantum MCAN/ES/89/IPZ229/1/89 promastigotes at 25 uM after 24 hrs by propidium iodide staining based flow cytometry; type: functional, organism-based
Leishmania infantum [4] = assay: Leishmanicidal activity against Leishmania infantum amastigotes at 25 uM after 24 hrs by propidium iodide staining based flow cytometry; type: functional, organism-based
Proteinase K = Proteinase K (Engyodontium album, UniProt P06873); assay: Stability assessed as Tritirachium album proteinase K-mediated compound degradation by measuring half life at 50 uM by HPLC method; type: ADME; conditions: parengyodontium album
Sequence of Proteinase K (P06873 whole entry): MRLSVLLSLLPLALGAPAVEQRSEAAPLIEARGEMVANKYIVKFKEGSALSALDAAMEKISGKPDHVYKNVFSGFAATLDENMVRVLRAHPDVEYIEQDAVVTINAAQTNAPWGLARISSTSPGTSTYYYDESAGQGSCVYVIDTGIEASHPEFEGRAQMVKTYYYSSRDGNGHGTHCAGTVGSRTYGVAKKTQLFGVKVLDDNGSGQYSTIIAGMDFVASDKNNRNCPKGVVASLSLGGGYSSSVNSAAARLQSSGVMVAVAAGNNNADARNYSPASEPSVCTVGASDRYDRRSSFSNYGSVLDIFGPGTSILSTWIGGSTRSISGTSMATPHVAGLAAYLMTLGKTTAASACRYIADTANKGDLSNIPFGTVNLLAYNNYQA

T1 sequence (A4HSF7 whole entry): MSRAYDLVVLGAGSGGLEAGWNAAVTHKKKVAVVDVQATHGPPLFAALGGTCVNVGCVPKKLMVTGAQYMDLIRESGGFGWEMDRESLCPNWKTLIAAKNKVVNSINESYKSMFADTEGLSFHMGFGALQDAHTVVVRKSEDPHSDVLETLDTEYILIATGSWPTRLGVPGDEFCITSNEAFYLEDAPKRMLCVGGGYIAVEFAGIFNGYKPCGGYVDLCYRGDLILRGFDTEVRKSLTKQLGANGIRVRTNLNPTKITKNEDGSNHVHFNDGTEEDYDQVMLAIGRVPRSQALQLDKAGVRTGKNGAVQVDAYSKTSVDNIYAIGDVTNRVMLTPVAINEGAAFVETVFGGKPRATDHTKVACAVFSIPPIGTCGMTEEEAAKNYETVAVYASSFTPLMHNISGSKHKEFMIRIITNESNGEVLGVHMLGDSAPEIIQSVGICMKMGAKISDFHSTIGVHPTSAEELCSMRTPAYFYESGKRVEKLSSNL

Compound	IC50 (Trypanothione reductase [1])	IC50 (Trypanothione reductase [2])	Activity (Leishmania infantum [3])	Activity (Leishmania infantum [4])	half-life at 50 µM (Proteinase K)
CCCC[C@@H](CC(N)=O)NC(=O)[C@H](CCCCN)NC(=O)[C@H](CCCC)NC(=O)C[C@H](CO)NC(=O)C[C@H](NC(=O)CNC(=O)[C@@H](NC(=O)C[C@H](CO)NC(=O)[C@H](CCC(N)=O)NC(=O)[C@@H](NC(=O)[C@@H](NC(=O)C[C@H](CCCCN)NC(=O)C[C@@H]1CCCN1C(C)=O)[C@@H](C)CC)[C@@H](C)CC)C(C)C)[C@@H](C)CC	2.08 µM	18 µM	inactive	inactive	2.18 h
CCCC[C@@H](CC(=O)N[C@@H](CCCCN)C(=O)N[C@@H](CCCC)C(N)=O)NC(=O)[C@@H](CO)NC(=O)[C@@H](NC(=O)C[C@H](C)NC(=O)[C@@H](NC(=O)[C@@H](CO)NC(=O)[C@H](CCC(N)=O)NC(=O)C[C@H](NC(=O)[C@@H](NC(=O)[C@H](CCCCN)NC(=O)C[C@@H]1CCCN1C(C)=O)[C@@H](C)CC)[C@@H](C)CC)C(C)C)[C@@H](C)CC	–	–	inactive	inactive	–
CC[C@H](C)[C@H](CC(=O)N[C@@H](CCC(N)=O)C(=O)N[C@@H](CO)C(=O)N[C@@H](CC(=O)NCC(=O)N[C@H](C(N)=O)[C@@H](C)CC)C(C)C)NC(=O)[C@@H](NC(=O)[C@H](CCCCN)NC(=O)[C@@H]1CCCN1C(C)=O)[C@@H](C)CC	> 75 µM	41.8 µM	inactive	inactive	–
CCCC[C@H](NC(=O)C[C@H](CCCCN)NC(=O)[C@H](CCCC)NC(=O)[C@H](CO)NC(=O)[C@@H](NC(=O)C[C@H](C)NC(=O)[C@@H](NC(=O)[C@H](CO)NC(=O)[C@H](CCC(N)=O)NC(=O)C[C@@H](NC(=O)[C@@H](NC(=O)[C@H](CCCCN)NC(=O)[C@@H]1CCCN1C(C)=O)[C@@H](C)CC)[C@@H](C)CC)C(C)C)[C@@H](C)CC)C(N)=O	5.38 µM	13.8 µM	inactive	inactive	–
CC[C@H](C)[C@H](CC(=O)N[C@H](C(=O)N[C@@H](CCC(N)=O)C(=O)N[C@@H](CO)C(=O)N[C@@H](CC(=O)NCC(=O)N[C@H](C(N)=O)[C@@H](C)CC)C(C)C)[C@@H](C)CC)NC(=O)[C@H](CCCCN)NC(=O)[C@@H]1CCCN1C(C)=O	> 75 µM	53 µM	inactive	inactive	–
CCCC[C@H](NC(=O)[C@@H](CO)NC(=O)[C@@H](NC(=O)CNC(=O)[C@@H](NC(=O)[C@@H](CO)NC(=O)[C@H](CCC(N)=O)NC(=O)[C@@H](NC(=O)[C@@H](NC(=O)[C@H](CCCCN)NC(=O)[C@@H]1CCCN1C(C)=O)[C@@H](C)CC)[C@@H](C)CC)C(C)C)[C@@H](C)CC)C(N)=O	–	–	inactive	inactive	–
CCCC[C@H](NC(=O)[C@H](CCCCN)NC(=O)[C@H](CCCC)NC(=O)[C@H](CO)NC(=O)[C@@H](NC(=O)CNC(=O)C[C@H](NC(=O)[C@H](CO)NC(=O)[C@H](CCC(N)=O)NC(=O)[C@@H](NC(=O)C[C@H](NC(=O)[C@H](CCCCN)NC(=O)[C@@H]1CCCN1C(C)=O)[C@@H](C)CC)[C@@H](C)CC)C(C)C)[C@@H](C)CC)C(N)=O	8.78 µM	13.7 µM	inactive	inactive	–
CCCC[C@H](NC(=O)[C@H](CCCCN)NC(=O)[C@H](CCCC)NC(=O)[C@@H](CO)NC(=O)[C@@H](NC(=O)CNC(=O)[C@@H](NC(=O)[C@@H](CO)NC(=O)[C@H](CCC(N)=O)NC(=O)[C@@H](NC(=O)[C@@H](NC(=O)[C@H](CCCCN)NC(=O)[C@@H]1CCCN1C(C)=O)[C@@H](C)CC)[C@@H](C)CC)C(C)C)[C@@H](C)CC)C(N)=O	–	–	inactive	inactive	–
CCCC[C@H](NC(=O)[C@H](CO)NC(=O)[C@@H](NC(=O)CNC(=O)[C@@H](NC(=O)[C@H](CO)NC(=O)[C@H](CCC(N)=O)NC(=O)[C@@H](NC(=O)[C@@H](NC(=O)[C@H](CCCCN)NC(=O)[C@@H]1CCCN1C(C)=O)[C@@H](C)CC)[C@@H](C)CC)C(C)C)[C@@H](C)CC)C(N)=O	0.82 µM	4.21 µM	–	–	–
CCCC[C@H](NC(=O)[C@H](CCCCN)NC(=O)[C@H](CCCC)NC(=O)[C@H](CO)NC(=O)[C@@H](NC(=O)CNC(=O)[C@@H](NC(=O)[C@H](CO)NC(=O)[C@H](CCC(N)=O)NC(=O)[C@@H](NC(=O)[C@@H](NC(=O)[C@H](CCCCN)NC(=O)[C@@H]1CCCN1C(C)=O)[C@@H](C)CC)[C@@H](C)CC)C(C)C)[C@@H](C)CC)C(N)=O	1.2 µM	10.3 µM	–	–	0.383 h
CC[C@H](C)[C@H](NC(=O)CNC(=O)[C@@H](NC(=O)[C@H](CO)NC(=O)[C@H](CCC(N)=O)NC(=O)[C@@H](NC(=O)[C@@H](NC(=O)[C@H](CCCCN)NC(=O)[C@@H]1CCCN1C(C)=O)[C@@H](C)CC)[C@@H](C)CC)C(C)C)C(N)=O	3.59 µM	15.7 µM	–	–	–
CCCC[C@@H](CC(=O)N[C@@H](CCCCN)C(=O)N[C@@H](CCCC)C(N)=O)NC(=O)[C@@H](CO)NC(=O)[C@@H](NC(=O)CNC(=O)C[C@H](NC(=O)[C@H](CO)NC(=O)[C@H](CCC(N)=O)NC(=O)C[C@H](NC(=O)[C@@H](NC(=O)[C@H](CCCCN)NC(=O)[C@@H]1CCCN1C(C)=O)[C@@H](C)CC)[C@@H](C)CC)C(C)C)[C@@H](C)CC	–	–	inactive	inactive	–
CC[C@H](C)[C@H](NC(=O)CNC(=O)[C@@H](NC(=O)[C@@H](CO)NC(=O)[C@H](CCC(N)=O)NC(=O)[C@@H](NC(=O)[C@@H](NC(=O)[C@H](CCCCN)NC(=O)[C@@H]1CCCN1C(C)=O)[C@@H](C)CC)[C@@H](C)CC)C(C)C)C(N)=O	–	–	inactive	inactive	–
CCCC[C@@H](CC(=O)N[C@@H](CCCCN)C(=O)N[C@@H](CCCC)C(N)=O)NC(=O)[C@H](CO)NC(=O)[C@@H](NC(=O)C[C@H](C)NC(=O)[C@@H](NC(=O)[C@H](CO)NC(=O)[C@H](CCC(N)=O)NC(=O)C[C@H](NC(=O)[C@@H](NC(=O)[C@H](CCCCN)NC(=O)C[C@@H]1CCCN1C(C)=O)[C@@H](C)CC)[C@@H](C)CC)C(C)C)[C@@H](C)CC	2.69 µM	13.9 µM	–	–	0.383 h
CC[C@H](C)[C@H](NC(=O)C[C@H](C)NC(=O)[C@@H](NC(=O)[C@H](CO)NC(=O)[C@H](CCC(N)=O)NC(=O)C[C@@H](NC(=O)[C@@H](NC(=O)[C@H](CCCCN)NC(=O)C[C@@H]1CCCN1C(C)=O)[C@@H](C)CC)[C@@H](C)CC)C(C)C)C(=O)O	39.8 µM	50.4 µM	inactive	inactive	–
CCCC[C@H](NC(=O)[C@H](CO)NC(=O)[C@@H](NC(=O)C[C@H](C)NC(=O)[C@@H](NC(=O)[C@H](CO)NC(=O)[C@H](CCC(N)=O)NC(=O)C[C@@H](NC(=O)[C@@H](NC(=O)[C@H](CCCCN)NC(=O)[C@@H]1CCCN1C(C)=O)[C@@H](C)CC)[C@@H](C)CC)C(C)C)[C@@H](C)CC)C(N)=O	28.5 µM	47.3 µM	inactive	inactive	–
CCCC[C@@H](CC(=O)N[C@@H](CCCCN)C(=O)N[C@@H](CCCC)C(N)=O)NC(=O)[C@H](CO)NC(=O)[C@@H](NC(=O)CNC(=O)C[C@H](NC(=O)[C@H](CO)NC(=O)[C@H](CCC(N)=O)NC(=O)C[C@H](NC(=O)[C@@H](NC(=O)[C@H](CCCCN)NC(=O)[C@@H]1CCCN1C(C)=O)[C@@H](C)CC)[C@@H](C)CC)C(C)C)[C@@H](C)CC	3.11 µM	10.3 µM	–	–	3.58 h
